Experiment [1] deals with KG-1a cells. In words: MTT cytotoxicity assay in KG-1a cells. Format: cell-based, human. The settings on record: for IC50 / IC20: Homo sapiens; for Selectivity index (SI): IC50 for normal cells (PBMCs) / IC50 for cancer cells (KG-1a). On the procedure:
(§1) MTT (3-(4,5-dimethylthiazol-2-yl)-2,5-diphenyltetrazolium bromide) assay was used to investigate the cytotoxicity of the test samples. KG-1a (1.5 × 10^4 cells/well), K562 (1.0 × 10^4 cells/well), PBMCs (1.0 × 10^5 cells/well), A549 (5.0 × 10^3 cells/well), MCF-7 (5.0 × 10^3 cells/well), and HeLa (5.0 × 10^3 cells/well) were seeded into a 96-well plate and incubated overnight at 37 °C with 5% CO2. […] After that, 5 mg/mL of MTT dye solution (Sigma-Aldrich, MA, USA) was added and incubated for 4 h. The produced formazan crystals were dissolved in 200 µL of DMSO (Sigma-Aldrich, MA, USA); then, the optical density (OD) was measured using an ELISA plate reader (Metertech, Taipei, Taiwan) at 578 nm with a reference wavelength of 630 nm. The percentage of surviving cells was calculated from the absorbance values of the test and control wells using the following Equation. 1 [drawing 1]
(§2) where ODsample is a mean absorbance in test well and ODvehicle control is a mean absorbance in VC well. The average percentage of surviving cells at each concentration obtained from triplicate experiments was plotted as a dose-response curve. Inhibitory concentration values at 50% growth (IC50 value) were defined as the lowest concentration of the test sample that inhibited cell growth by 50% compared to the untreated control.
(§3) To calculate IC50 values, a dose-response curve was fitted using non-linear regression analysis, as described in the GraphPad Prism guidelines (https://www.graphpad.com/support/faq/how-to-determine-an-icsub50sub/). The IC50 value was obtained by determining the point at which the curve intersected 50% growth inhibition. Non-linear regression graphs of the dose-response curve for each compound are provided in the supplementary data file (Figs. S1–S8).
where IC50 N is IC50 for normal cells and IC50 C is IC50 for cancer cells which were treated with the same compounds in both cells.

Experiment [2] relates to KG-1a cells. The experiment can be described thus: Cell death analysis by PI staining and flow cytometry in KG-1a cells. To be noted: nocodazole 5–120 ng/mL, shogaol 6–9 µg/mL, curcumin various concentrations; time course. Format: cell-based, human. As for the experimental part: Additionally, PI staining was used to investigate the cytotoxicity of the active compounds. KG-1a cells after exposure to the active compounds with various concentration were harvested at different incubation times and washed with ice-cold PBS, pH 7.4 for 2 times. Then, the cells were resuspended with PI in PBS, pH 7.4 at a ratio of 1:10,000. The percentage of dead cells was detected by flow cytometry (CytoFLEX S, Beckman Coulter, CA, USA) and analyzed by CytExpert program (Beckman Coulter, CA, USA).

In experiment [3] the test system is WT1 protein expression in KG-1a cells. The experiment can be described thus: WT1 protein expression in KG-1a cells by Western blotting. The format is cell-based, human. As for the experimental part: (§4) KG-1a cells (1.5 × 10^5 cells/mL) were treated with compounds or extracts at different incubation times. Then, the cells were harvested and the whole proteins were extracted using a RIPA buffer (25 mM Tris-base, pH 7.6, 0.1% SDS, 1% Triton X-100, 150 mM NaCl, and 1 mM EDTA). The protein concentration was measured using the Folin-Lowry or Bradford assay. The whole protein lysates (30 µg/lane) were then separated through 7.5% SDS-PAGE under reducing conditions and then transferred to PVDF membranes. The membranes were blocked in 5% skim milk in PBS, pH 7.4 at RT for 2 h, then, target proteins were probed with specific primary antibodies (anti-WT1, anti-CD34, anti-GAPDH, anti-cleaved caspase-3, anti-cleaved PARP, anti-phospho-Akt, anti-phospho-c-Jun, anti-phospho-SAPK/JNK, and anti-YAP/TAZ) indicated in Table S10 which diluted at a ratio of 1:1,000 in PBS, pH 7.4 at RT for 2 h. After incubation, the membranes were rinsed 6 times with 0.1% Tween-20 (Sigma-Aldrich, MA, USA) in PBS, pH 7.4 (PBS-T), each time for 5 min. The reaction was followed by HRP-conjugated secondary antibody at 1:20,000 dilution in PBS, pH 7.4 at RT for 2 h, then, the membranes were rinsed 6 times for 5 min each with PBS-T. The proteins were shown using Immobilon Forte Western HRP substrate (Millipore, MA, USA). Finally, the protein band signal was quantified by using a scan densitometer (Bio-Rad Laboratories, CA, USA).

Experiment [4] has as its system cleaved caspase-3 and PARP in KG-1a cells. In words: Cleaved caspase-3 and cleaved PARP in KG-1a cells by Western blotting. The format is cell-based, human. The settings on record: IC50 concentrations (curcumin 10 µg/mL, shogaol 3 µg/mL, nocodazole 10 ng/mL), 0–12 h. On the procedure:
as §4

In experiment [5] the test system is KG-1a cells. The experiment can be described thus: Cell cycle and apoptosis (sub-G1) assay by flow cytometry in KG-1a cells. The settings on record: 48 h. The format is cell-based, human. As for the experimental part: After treating KG-1a cells with active compounds at various concentrations for 48 h, the cells were pulsed with 10 µM BrdU (Sigma-Aldrich, MA, USA) for 20 min at 37 °C in an incubator with 5% CO2. Subsequently, the cells were harvested, washed with ice-cold PBS, pH 7.4 three times, and then fixed with 70% ethanol in PBS, pH 7.4 at −30 °C. Following fixation, the cells were washed and resuspended in 2 N HCl/0.5% Triton X-100 for 30 min at room temperature (RT). Then, 0.1 M sodium tetraborate decahydrate was added for 2 min at RT to neutralize the acid. Subsequently, the cells were stained with FITC-anti-BrdU antibody for 30 min at RT. After washing, the cells were resuspended in propidium iodide (PI) (Dojindo, Kumamoto, Japan) in PBS, pH 7.4 at a ratio of 1:1,000. The cell cycle phases were detected using a flow cytometer (CytoFLEX S, Beckman Coulter, CA, USA) and analyzed with the CytExpert program (Beckman Coulter, CA, USA).
The flow cytometry data were analyzed to assess both apoptosis and cell cycle distribution. Apoptosis was evaluated by determining the percentage of cells in the sub-G1 phase using the Nicoletti assay. For cell cycle analysis, populations in the G1, S, and G2/M phases were calculated after excluding the sub-G1 population to avoid interference from apoptotic cells, allowing for a clearer assessment of cell cycle arrest in different phases. Data were presented in separate graphs for the sub-G1 population and cell cycle phase distributions.

For experiment [6], the system named is CD34 protein expression in KG-1a cells. In words: CD34 protein expression in KG-1a cells by Western blotting. The format is cell-based, human. To be noted: IC20 concentrations, 48 h, normalized to GAPDH. On the procedure: as §4
The test system of the next experiment is PBMCs. The experiment can be described thus: MTT cytotoxicity assay in PBMCs. The format is cell-based, human. The settings on record: Homo sapiens, PBMC. As for the experimental part:
PBMCs were isolated from blood samples using the Ficoll-Hypaque technique. Initially, 10–20 mL of blood was collected in a heparin tube at a ratio of 1:500 from a minimum of three healthy volunteers. Subsequently, the blood samples were diluted with Phosphate buffer saline (PBS), pH 7.4, at a ratio of 1:1 to reduce viscosity. Histopaque-1077 (Sigma-Aldrich, MA, USA) was then underlaid the diluted sample and centrifuged at 400×g for 30 min. The resulting PBMCs were collected, washed with PBS, pH 7.4, and prepared for further experiments.
as §1, §2, §3

A further experiment concerns RAW264.7 cells. The experiment can be described thus: Cytotoxicity (IC20, cell viability) in RAW264.7 cells. The format is cell-based. To be noted: Mus musculus, RAW264.7, 48 h, read-out: IC20 RAW264.7 (inhibitory concentration at 20% growth). As for the experimental part:
MTT (3-(4,5-dimethylthiazol-2-yl)-2,5-diphenyltetrazolium bromide) assay was used to investigate the cytotoxicity of the test samples. […] After that, 5 mg/mL of MTT dye solution (Sigma-Aldrich, MA, USA) was added and incubated for 4 h. The produced formazan crystals were dissolved in 200 μL of DMSO (Sigma-Aldrich, MA, USA); then, the optical density (OD) was measured using an ELISA plate reader ([…], Taiwan) at 578 nm with a reference wavelength of 630 nm. The percentage of surviving cells was calculated from the absorbance values of the test and control wells using the following Equation. 1 [drawing 1] […] Afterward, supernatants were collected, and the levels of TNF-α and NO were measured using the Mouse TNF alpha Uncoated ELISA Kit (InvitrogenTM, ThermoFisher Scientific, MA, USA) and the Total Nitric Oxide Assay Kit (InvitrogenTM, ThermoFisher Scientific, MA, USA), respectively, according to the manufacturer's instructions.

In brackets after ≈: the same amount, converted by molar mass. Where two headings read alike, the source gives them in different places.

For the compound `COC(=O)Nc1nc2ccc(C(=O)c3cccs3)cc2[nH]1` [Nocodazole, nocodazole, reference compound], the IC50 with KG-1a cells [1] (KG-1a, as used for Western blotting, read-out: IC50 concentration in KG-1a cells) is 0.01 µg/mL (≈ 0.0332 µM). Besides, the IC20 in the experiment with KG-1a cells [1] (KG-1a, as used in the cell cycle assay, read-out: IC20 concentration in KG-1a cells) was 0.006 µg/mL (≈ 0.0199 µM). Besides, the “induction of cell death (PI staining)” value in the experiment with KG-1a cells [2] is “significant induction of cell death after 24 h of incubation”. In experiment [3] (IC50 concentration, up to 12 h), the “effect on WT1 expression” value is on record as “failed to reduce WT1 expression even after 12 h of incubation”. Moreover, the “time to activation of cleaved caspase-3 and PARP” value in experiment [4] was “failed to induce the activation of cleaved caspase-3 and PARP even after 12 h of incubation”. Further, the “effect on sub-G1 population compared to VC” value in the experiment with KG-1a cells [5] (IC20 concentration (nocodazole 6 ng/mL, curcumin 3 µg/mL, shogaol 0.12 µg/mL)) is reported as “significantly increased the sub-G1 population”. The “increase of proportion of cells in G2/M phase” value with KG-1a cells [5] (IC20 concentration, sub-G1 excluded) amounted to 23.48 ± 1.35%.

Turning to `COc1cc(/C=C/C(O)=C/C(=O)/C=C/c2ccc(O)cc2)ccc1O` [Demethoxycurcumin, demethoxycurcumin], the “decrease of CD34 protein level compared to VC” value in experiment [6] was determined as 32.79 ± 1.56%. The IC50 was found to be 11.3 ± 0.85 µg/mL (≈ 33.3 µM) in the experiment with KG-1a cells [1] (KG-1a, active compounds and drugs, MTT, 48 h, read-out: IC50 KG-1a); 10.3 µg/mL (≈ 30.5 µM) in the experiment with KG-1a cells [1] (Table S7, KG-1a, first replicate, read-out: IC50 value R1); 11.6 µg/mL (≈ 34.4 µM) with KG-1a cells [1] (Table S7, KG-1a, second replicate, read-out: IC50 value R2); 11.9 µg/mL (≈ 35.1 µM) in the experiment with KG-1a cells [1] (Table S7, KG-1a, third replicate, read-out: IC50 value R3); 14.2 µg/mL (≈ 41.8 µM) with PBMCs (Table S8, PBMCs, first replicate, read-out: IC50 value R1); 13.6 µg/mL (≈ 40.2 µM) with PBMCs (Table S8, PBMCs, second replicate, read-out: IC50 value R2). For the same compound, the IC50 with PBMCs (Table S8, PBMCs, third replicate, read-out: IC50 value R3) turned out to be 13.9 µg/mL (≈ 41 µM); in the experiment on PBMCs (active compounds and drugs, MTT, 48 h, read-out: IC50 PBMCs), 13.9 ± 0.28 µg/mL (≈ 41 µM). The IC20 in the experiment with KG-1a cells [1] (KG-1a, incubation for 48 h, read-out: IC20 KG-1a (inhibitory concentration at 20% growth)) was 3.69 ± 0.53 µg/mL (≈ 10.9 µM); in the experiment on PBMCs (incubation for 48 h, read-out: IC20 PBMCs (inhibitory concentration at 20% growth)), 7.95 ± 0.26 µg/mL (≈ 23.5 µM); in the experiment with RAW264.7 cells, 5.94 ± 2.02 µg/mL (≈ 17.6 µM). Further, the “Selectivity index (SI)” value in the experiment with KG-1a cells [1] (48 h) is listed as 1.23; in the experiment with KG-1a cells [1] (48 h, listed as demethoxycurcumin), “greater than 1”. Moreover, the “decrease of WT1 protein level compared to VC” value in experiment [3] (IC20 concentrations, 48 h, normalized to GAPDH) stood at 33.37 ± 3.87%.
